In patent US10308682B2, “Inhibition of tumor growth with aggregates of small molecules” (BRANDEIS UNIVERSITY, priority 2013, dated 2019):

Experiments:
[1] = Cell viability assay (MTT), PC12 neuronal cell line; format: cell-based; conditions: rat, PC12 cells; 400 and 500 μM, 7 days
Protocol: (§1) FIG. 10 depicts the long term cytotoxicity of 1 on PC12 cells. Related to FIG. 2. (a) MTT viability test of cell incubated with gradient concentration of 1 for up to 7 days without changing medium. Data are presented as mean±SD of three independent experiments. (b) Intracellular concentration of 1 in PC12 cells treated with 1 for 12 h at 37° C. measured by LC-MS (left bar=400 μM; right bar=300 μM). (c) Cells were subcultured and re-seeded with new medium containing the same concentration of 1 (0 for control group and 400 μM for test group) every 4 days. Data are presented as mean±SD of three independent experiments.
(§2) Cells in exponential growth phase were seeded in a 96 well plate at a concentration of 50,000 cell/well. The cells were allowed to attach to the wells for 24 h at 37° C., 5% CO2, then the culture medium was removed and 100 μL new culture medium containing 1 at gradient concentrations was placed into each well. After culturing at 37° C., 5% CO2 for desired time, each well was added by 10 μL of 5 mg/mL MTT 43-(4,5-Dimethylthiazol-2-yl)-2,5-diphenyltetrazolium bromide), and the plated cells were incubate at dark for 4 h. 100 μL 10% SDS with 0.01 M HCl was added to each well to stop the reduction reaction and to dissolve the purple. After incubation of the cells at 37° C. for overnight, the viability is measured. Data represent the mean±standard deviation of three independent experiments.
(§3) The estimation of the threshold concentration of aggregation (320-340 μM) for 1 allows us to examine the cytotoxicity of 1 in monomer and molecular aggregate forms. We first tested the cytotoxicity of 1 towards HeLa cells, the most widely studied cancer cell line, below and above the threshold concentration.

PC12 = experiment: as above; format: cell-based
Protocol: as §1, §2, §3

HepG2 = experiment: Cell viability assay (MTT), HepG2; format: cell-based
Protocol: as §2, §3

T98G = experiment: Cell viability assay (MTT), T98G; format: cell-based
Protocol: as §2, §3

MCF-7 = experiment: Cell viability assay (MTT), MCF-7; format: cell-based
Protocol: as §2, §3

actin = molecular target: T1, actin (Homo sapiens, UniProt P60709); experiment: Hydrogel based protein pull-down assay, actin; format: binding; conditions: hydrogel 10 mM, HeLa cell lysate, Western blot
T1 construct: snap freeze and thaw for 3 cycles to lyse the cells; endogenous in cells; host or cells: HeLa cell lysate
Protocol: (§4) 4×10^7 of HeLa cells were scrapped from petri dish and washed with PBS buffer for 3 times then centrifuged at 300 g for 5 minutes. The collected cell pellet was mixed with phosphate buffer (100 mM) then snap freeze and thaw for 3 cycles to lyse the cells. The cell lysate was clarified by centrifugation at 12,000 g for 20 min at 4° C. to remove the whole cells, nuclei and large mitochondria. 50 μL of the supernatant lysate was gently mixed with 30 μL hydrogel of 1 (10 mM in PBS buffer, pH 7.6) on rotator at RT for 30 min. The hydrogel was collected by centrifugation (12,000 g, 5 min, 4° C.) and the supernatant was collected and placed on ice before analysis. The hydrogel was washed three times by gently mixing with 50 μL of the washing buffer (50 mM phosphate buffer pH 7.6 supplemented with 150 mM NaCl) on rotator at RT for 10 min followed by separation on centrifuge (12,000 g, 5 min, 4° C.). Supernatants were collected and placed on ice before analysis. Finally, the remaining hydrogel was dissolved using 1:1 washing buffer and 5× Laemeli buffer. All other samples were mixed with 5× Laemeli buffer (final concentration 2×) before SDS-PAGE.
(§5) That 1 enters the cells to affect cell cycle, cell migration, and eventually cell viability implies the interactions between the aggregates of 1 and certain intracellular proteins. […]

tau = experiment: Hydrogel based protein pull-down assay, tau; format: binding; conditions: protein mass-spectrometry
Protocol: One reason is that PC12 cells have slower metabolism and growth (e.g., doubling every 72 h) than that of cancer cells. […] Another reason is that, PC12 cells, as a neuronal cell, have abundant amount of microtubule-stabilizing proteins (e.g., tau and MAP2) to promote tubulin polymerization and stabilize microtubules. […] Therefore, the existence of microtubule-stabilizing proteins in neurons can counter the effect of the molecular aggregates of 1, which is consistent with that PC12 cells, incubated with 1 at 400 μM (FIG. 5p), still display intact microtubule network. These two effects together, protect the PC12 cells from cytotoxicity induced by molecular aggregates of 1 (FIG. 7).
4×10^7 of HeLa cells were scrapped from petri dish and washed with PBS buffer for 3 times then centrifuged at 300 g for 5 minutes. The collected cell pellet was mixed with phosphate buffer (100 mM) then snap freeze and thaw for 3 cycles to lyse the cells. The cell lysate was clarified by centrifugation at 12,000 g for 20 min at 4° C. to remove the whole cells, nuclei and large mitochondria. 50 μL of the supernatant lysate was gently mixed with 30 μL hydrogel of 1 (10 mM in PBS buffer, pH 7.6) on rotator at RT for 30 min. The hydrogel was collected by centrifugation (12,000 g, 5 min, 4° C.) and the supernatant was collected and placed on ice before analysis. […]

tubulin = molecular target: T2, tubulin (Homo sapiens, UniProt P68366+P68371); experiment: Hydrogel based protein pull-down assay, tubulin; format: binding; conditions: hydrogel 10 mM, HeLa cell lysate, Western blot
T2 construct: snap freeze and thaw for 3 cycles to lyse the cells; endogenous in cells; host or cells: HeLa cell lysate
Protocol: as §4, §5

HeLa cells = experiment: FITC annexin V / PI staining of HeLa cells; format: cell-based; conditions: 400 μM, 36 h
Description: To determine the process of cell death induced by the aggregates of 1, we used FITC conjugated annexin V and propidium iodide (PI) to stain the cells (FIG. 3b). Being membrane impermeable, PI discriminates viable cells from late apoptotic or necrotic cells, and FITC conjugated annexin V binds to plasma membrane of apoptotic and necrotic cells as the former ones have extracellular exposed phosphatidylserine and the latter ones lose membrane integrity.

T2 sequence (P68366 whole entry): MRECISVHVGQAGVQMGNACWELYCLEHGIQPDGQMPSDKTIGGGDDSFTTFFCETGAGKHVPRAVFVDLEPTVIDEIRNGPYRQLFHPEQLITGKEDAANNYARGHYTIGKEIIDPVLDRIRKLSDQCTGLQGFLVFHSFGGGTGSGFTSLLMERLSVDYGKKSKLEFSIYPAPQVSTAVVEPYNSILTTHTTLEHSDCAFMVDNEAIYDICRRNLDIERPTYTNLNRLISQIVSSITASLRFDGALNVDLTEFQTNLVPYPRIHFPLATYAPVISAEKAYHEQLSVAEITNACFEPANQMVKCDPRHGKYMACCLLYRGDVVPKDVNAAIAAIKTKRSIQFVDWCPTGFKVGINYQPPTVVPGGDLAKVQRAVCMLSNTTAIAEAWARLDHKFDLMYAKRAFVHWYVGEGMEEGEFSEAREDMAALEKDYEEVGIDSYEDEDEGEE
T2 sequence (P68371 whole entry): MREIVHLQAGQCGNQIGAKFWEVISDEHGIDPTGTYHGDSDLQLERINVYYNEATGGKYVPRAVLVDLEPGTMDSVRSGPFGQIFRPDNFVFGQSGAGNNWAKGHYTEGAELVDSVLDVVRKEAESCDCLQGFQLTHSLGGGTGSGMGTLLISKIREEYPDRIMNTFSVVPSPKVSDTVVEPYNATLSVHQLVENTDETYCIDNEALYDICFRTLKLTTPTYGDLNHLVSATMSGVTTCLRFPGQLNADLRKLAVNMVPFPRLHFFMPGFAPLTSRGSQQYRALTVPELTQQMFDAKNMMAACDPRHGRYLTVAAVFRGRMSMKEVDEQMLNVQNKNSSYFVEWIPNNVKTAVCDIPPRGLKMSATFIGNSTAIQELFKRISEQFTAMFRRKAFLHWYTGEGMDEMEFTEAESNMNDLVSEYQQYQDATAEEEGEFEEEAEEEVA

O=C(Cc1ccc2ccccc2c1)N[C@@H](Cc1ccccc1)C(=O)N[C@@H](Cc1ccccc1)C(=O)O [Compound 1]
viability at 7 days [1]: > 60%
viability of PC12 cells, constant supply of 1 (PC12; 400 μM, after 7 days, re-seeded with new medium every 4 days): significant loss of cell viability
toxicity towards PC12 (PC12; 400 and 500 μM): little toxicity
cytotoxicity towards HepG2 (HepG2): decreases of cell viabilities only observed at 400 and 500 μM
cytotoxicity towards T98G (T98G): decreases of cell viabilities only observed at 400 and 500 μM
cytotoxicity towards MCF-7 (MCF-7): decreases of cell viabilities only observed at 400 and 500 μM
binding of actin to the aggregates of 1 (actin): low binding affinity
interaction of aggregates of 1 with tau (tau): little or no interaction
binding of tubulin to the aggregates of 1 (tubulin): higher affinity to the aggregates of 1 than actin does
process of cell death (HeLa cells): induce apoptosis
